The values below come from patent US5424441A, “N-aralkyl-and N-heteroaralkyl-aminoalkanephosphinic acids” (Ciba-Geigy Corporation, priority 1994, dated 1995).

The experiment concerns "epileptic-like" discharges from pyramidal cells. The experiment is described as follows: penicillin-induced "epileptic" hippocampus section preparation, electrophysiological model in vitro. The class given is cell-based. The settings on record: read-out: concentration at which "epileptic-like" discharges from pyramidal cells are inhibited.

`NCC(CC(=O)O)c1ccc(Cl)cc1` (stereo not shown) [baclofen]: the minimal effective concentration came to 6 µM.
